Assay results: US7326689B2, “Pseudomycins useful against plant diseases” (Eli Lilly and Company, priority 2000, dated 2008)
Several values for one entry are separate records, joined by “and”; a condition that tells them apart may be missing. Identical values can stand only once.

Assays:
Test in all cases: Antifungal growth assay in potato dextrose broth, 24-well
Type in all cases: cell-based
Rhizoctonia solani = conditions: 2x assays
Description: (§1) Fungi to be tested were propagated on potato dextrose agar (PDA) plates at room temperature. Stock solutions of pseudomycins and depsipeptide were suspended in dimethylsulfoxide (DMSO) (Sigma) at 5 mg/ml and stored at −20C. Serial dilutions of compounds were done the day of the experiment. All serial dilutions were made in DMSO. […] These are noted in the raw data section.
(§2) Assays were performed in 24-well cell culture clusters (Costar 3524), with 990 ul potato dextrose broth (PDB, Difco) and 10 ul of the compound to be tested in each well. Initial concentrations tested were 50-1.56 ug/ml (final concentration of pseudomycin). Actual concentrations of pseudomycins tested were 50, 25, 12.5, 6.25, 3.12 and 1.56 ug/ml. Each well was inoculated with the appropriate fungus. Unless noted, the fungal inoculum consisted of an ˜4 mm^2 piece of PDA with fungal mycelium. The exceptions were as follows. Ustilago maydis: this fungus grows much like a yeast on PDA, and cells were scraped from the PDA stock plate, resuspended in PDB and 10 ul inoculum added to each well. Monilinia sp.: this fungal mycelium grows as a very loose sheet on top of PDA and would not adhere to agar blocks. Fungal mycelium was ground with a metal rod in 500 ul PDB and 10 ul inoculum was added to each well. Mycosphaeella fijiensis, Septoria passerinii, Septoria triticii: these fungi all grow very slowly and the results were difficult to score if a small piece of agar with fungal mycelium on it was used as an inoculum. For these fungi, the mycelium was ground with a metal rod in 500 ul PDB and 10 ul inoculum was added to each well.
(§3) Wells were scored for fungal growth at two days and five days. Some slow growing fungi were scored at later days for growth because assessment was not possible at two or five days. Growth was scored by comparison to a control consisting of fungus inoculated into 990 ul potato dextrose broth and 10 ul of DMSO (Dimethylsulfoxide). An additional control consisting of fungal inoculum in PDB only was performed to ensure that the DMSO was not inhibitory to fungal growth.
(§4) For assays that were repeated, new stock solutions were made from a second shipment of pseudomycins. Note that pseudomycin B′ and depsipeptide stock solutions were remade from first shipment materials because these were not included in the second shipment. […] Actual concentrations of pseudomycins tested were 2, 1, 0.5, 0.25, 0.125 and 0.0625 ug/ml. A-PO4 and A-FB=pseudomycin A phosphate salt and free base respectively.
(§5) Table 2: Two day results—concentration indicated is lowest level of compound (ug /ml) that results is no growth. NI, no inhibition; p (partial), at least 50% inhibited; -, not determined. If number of assays was greater than one, number of assays performed on the fungus is noted in parentheses. For several slow-growing fungi, days elapsed before observation (if different than two) are noted.
(§6) Table 3: Five day results—concentration indicated is lowest level of compound (ug /ml) that results in no growth. NI, no inhibition; p (partial), at least 50% inhibited; -, not performed on the fungus is noted in parentheses. For several slow-growing fungi, days elapsed before observation (if different than five) are noted.

[1] = test system: Mycosphaeella fijiensis (Sigatoka); conditions: 3x assays
Description: as §1, §2, §3, §4, §5, §6

Septoria passerinii = conditions: 3x assays
Description: as §1, §2, §3, §4, §5, §6

Septoria tritici = conditions: 3x assays
Description: as §1, §2, §3, §4, §5, §6

Ustilago maydis = conditions: 3x assays
Description: as §1, §2, §3, §4, §5, §6

Drechslera portulacae = conditions: 3x assays
Description: as §1, §2, §3, §4, §5, §6

Monilinia sp. = conditions: 2x assays
Description: as §1, §2, §3, §4, §5, §6

Penicillium roqueforti = conditions: 3x assays
Description: as §1, §2, §3, §4, §5, §6

Geotrichim candidum = conditions: 3x assays
Description: as §1, §2, §3, §4, §5, §6

[2] = test system: Mycosphaeella fijiensis (8088/88); conditions: 3x assays
Description: as §1, §2, §3, §4, §5, §6

Verticillium dahliae = test system: Verticillium dahliae; set-up: key: NI, no inhibition; p (partial), at least 50% inhibited; conditions: 2x assays
Description: as §1, §2, §3, §4, §5, §6

Phytophthora cactorum = test system: Phytophthora cactorum; set-up: key: NI, no inhibition; p (partial), at least 50% inhibited
Description: as §1, §2, §3, §4, §5, §6

Tapesia yallundae = test system: Tapesia yallundae; set-up: key: NI, no inhibition; p (partial), at least 50% inhibited; conditions: 2x assays
Description: as §1, §2, §3, §4, §5, §6

Stagonospora nodorum = test system: Stagonospora nodorum; set-up: key: NI, no inhibition; p (partial), at least 50% inhibited
Description: as §1, §2, §3, §4, §5, §6

Phytophthora ultimum = test system: Phytophthora ultimum; set-up: key: NI, no inhibition; p (partial), at least 50% inhibited
Description: as §1, §2, §3, §4, §5, §6

[3] = Table 2 (two day results), observed at 7 day
[4] = Table 3 (five day results), observed at 21 days
[5] = Table 3 (five day results), observed at 9 day

Substance	lowest level of compound that results in no growth (Rhizoctonia solani; five day results)	lowest level of compound that results in no growth (Rhizoctonia solani; two day results)	lowest level of compound that results in no growth [1, 3]	lowest level of compound that results in no growth [1, 4]	lowest level of compound that results in no growth (Septoria passerinii; two day results)	lowest level of compound that results in no growth (Septoria tritici; two day results)	lowest level of compound that results in no growth (Ustilago maydis; five day results)	lowest level of compound that results in no growth (Ustilago maydis; two day results)	lowest level of compound that results in no growth (Drechslera portulacae; [5])	lowest level of compound that results in no growth (Drechslera portulacae; two day results)	lowest level of compound that results in no growth (Monilinia sp.; five day results)	lowest level of compound that results in no growth (Monilinia sp.; two day results)	lowest level of compound that results in no growth (Penicillium roqueforti; five day results)	lowest level of compound that results in no growth (Penicillium roqueforti; two day results)	lowest level of compound that results in no growth (Geotrichim candidum; five day results)	lowest level of compound that results in no growth (Geotrichim candidum; two day results)	lowest level of compound that results in no growth [2, 3]	lowest level of compound that results in no growth (Verticillium dahliae; five day results)	lowest level of compound that results in no growth (Verticillium dahliae; two day results)	lowest level of compound that results in no growth (Phytophthora cactorum; five day results)	other results
Pseudomycin B′	6.25 µg/mL	6.25 µg/mL	0.5 µg/mL	1 µg/mL	0.5 µg/mL	0.5 µg/mL	3.12 µg/mL	1.56 µg/mL	0.25 µg/mL	0.12 µg/mL	25 µg/mL	25 µg/mL	1.56 µg/mL	1.56 µg/mL	25 µg/mL	25 µg/mL	0.5 µg/mL	NI	NI	NI	lowest level of compound that results in no growth (Septoria passerinii; five day results): 0.5 µg/mL; lowest level of compound that results in no growth (Septoria tritici; five day results): 0.5 µg/mL; lowest level of compound that results in no growth [2, 4]: 1 µg/mL; lowest level of compound that results in no growth (Phytophthora cactorum; two day results): NI; lowest level of compound that results in no growth (Tapesia yallundae; five day results): 50 µg/mL; lowest level of compound that results in no growth (Tapesia yallundae; two day results): 6.25 µg/mL; lowest level of compound that results in no growth (Stagonospora nodorum; five day results): NI; lowest level of compound that results in no growth (Stagonospora nodorum; two day results): NI; lowest level of compound that results in no growth (Phytophthora ultimum; five day results): NI; lowest level of compound that results in no growth (Phytophthora ultimum; two day results): NI
Pseudomycin C	p at 50	25 µg/mL	1.56 µg/mL	1.56 µg/mL	0.06 µg/mL	0.125 µg/mL	0.25 µg/mL	0.25 µg/mL	0.0625 µg/mL and 0.06 µg/mL	0.06 µg/mL	12.5 µg/mL	6.25 µg/mL	12.5 µg/mL	1.56 µg/mL	25 µg/mL	3.12 µg/mL	0.125 µg/mL	p at 50	25 µg/mL	NI	lowest level of compound that results in no growth (Septoria passerinii; five day results): 0.0625 µg/mL and 0.06 µg/mL; lowest level of compound that results in no growth (Septoria tritici; five day results): 0.25 µg/mL; lowest level of compound that results in no growth [2, 4]: 0.25 µg/mL; lowest level of compound that results in no growth (Phytophthora cactorum; two day results): NI; lowest level of compound that results in no growth (Tapesia yallundae; five day results): NI; lowest level of compound that results in no growth (Tapesia yallundae; two day results): 25 µg/mL; lowest level of compound that results in no growth (Stagonospora nodorum; five day results): NI; lowest level of compound that results in no growth (Stagonospora nodorum; two day results): NI; lowest level of compound that results in no growth (Phytophthora ultimum; five day results): NI; lowest level of compound that results in no growth (Phytophthora ultimum; two day results): NI
pseudomycin A-FB	50 µg/mL	6.25 µg/mL	0.5 µg/mL	1 µg/mL	0.06 µg/mL	0.25 µg/mL	1 µg/mL	1 µg/mL	0.25 µg/mL	0.25 µg/mL	12.5 µg/mL	6.25 µg/mL	3.12 µg/mL	1 µg/mL	6.25 µg/mL	3.12 µg/mL	0.25 µg/mL	p at 50	50 µg/mL	NI	lowest level of compound that results in no growth (Septoria passerinii; five day results): 0.06 µg/mL; lowest level of compound that results in no growth (Septoria passerinii; five day results, listed as pseudomycin A (free base)): 0.0625 µg/mL; lowest level of compound that results in no growth (Septoria tritici; five day results): 0.25 µg/mL; lowest level of compound that results in no growth [2, 4]: 0.25 µg/mL; lowest level of compound that results in no growth (Phytophthora cactorum; two day results): NI; lowest level of compound that results in no growth (Tapesia yallundae; five day results): 25 µg/mL; lowest level of compound that results in no growth (Tapesia yallundae; two day results): 12.5 µg/mL; lowest level of compound that results in no growth (Stagonospora nodorum; five day results): NI; lowest level of compound that results in no growth (Stagonospora nodorum; two day results): NI; lowest level of compound that results in no growth (Phytophthora ultimum; five day results): NI; lowest level of compound that results in no growth (Phytophthora ultimum; two day results): NI
Pseudomycin B	50 µg/mL	6.25 µg/mL	0.5 µg/mL	1 µg/mL	0.06 µg/mL	0.06 µg/mL	0.5 µg/mL	0.5 µg/mL	0.0625 µg/mL and 0.06 µg/mL	0.06 µg/mL	6.25 µg/mL	3.13 µg/mL	6.25 µg/mL	0.5 µg/mL	3.12 µg/mL	1.56 µg/mL	0.06 µg/mL	p at 50	25 µg/mL	NI	lowest level of compound that results in no growth (Septoria passerinii; five day results, listed as B): 0.0625 µg/mL and 0.06 µg/mL; lowest level of compound that results in no growth (Septoria tritici; five day results, listed as B): 0.06 µg/mL; lowest level of compound that results in no growth (Septoria tritici; five day results, listed as pseudomycin B): 0.0625 µg/mL; lowest level of compound that results in no growth ([2]; Table 3 (five day results), observed at 21 days, listed as B): 0.12 µg/mL; lowest level of compound that results in no growth ([2]; Table 3 (five day results), observed at 21 days, listed as pseudomycin B): 0.125 µg/mL; lowest level of compound that results in no growth (Phytophthora cactorum; two day results): NI; lowest level of compound that results in no growth (Tapesia yallundae; five day results): NI; lowest level of compound that results in no growth (Tapesia yallundae; two day results): 25 µg/mL; lowest level of compound that results in no growth (Stagonospora nodorum; five day results): NI; lowest level of compound that results in no growth (Stagonospora nodorum; two day results): NI; lowest level of compound that results in no growth (Phytophthora ultimum; five day results): NI; lowest level of compound that results in no growth (Phytophthora ultimum; two day results): NI
